According to ChEMBL document CHEMBL1122600, “Receptor binding sites of hypoglycemic sulfonylureas and related [(acylamino)alkyl]benzoic acids” (1984):

test system: Rattus norvegicus; test: Effect of the compound (50 mg/kg, po) on rat blood sugar level which was given an oral glucose load (1 g/kg) 1 hr after the administration of compound; assay type: functional

Compared with `CCc1ccc(CCNC(=O)c2cc(Cl)ccc2OC)cc1`, `COc1ccc(Cl)cc1C(=O)NCCc1ccc(C)cc1` is lower in “Change in rat blood sugar” value: -4% for the first, -55% for the second.

Compared with `COc1ccc(Cl)cc1C(=O)NCCc1ccccc1`, `COc1ccc(Cl)cc1C(=O)NCCc1ccc(O)cc1` is higher in “Change in rat blood sugar” value: -7% for the first, 2% for the second.

First: COc1ccc(Cl)cc1C(=O)NCCCCCC(=O)O
Second: COc1ccc(Cl)cc1C(=O)NCCc1ccc(C(=O)O)cc1 [MEGLITINIDE]
The “Change in rat blood sugar” value of the first is higher: 9% for the first, -63% for the second.

Compared with `C=Cc1ccc(CCNC(=O)c2cc(Cl)ccc2OC)cc1`, `COc1ccc(Cl)cc1C(=O)NCCc1ccc(Cl)cc1` is higher in “Change in rat blood sugar” value: -6% for the first, 0% for the second.

Compared with `COc1ccc(Cl)cc1C(=O)NCCc1ccc(C(C)O)cc1` (stereo not given), `COc1ccc(Cl)cc1C(=O)NCCc1ccc(N)cc1` is higher in “Change in rat blood sugar” value: -11% for the first, 7% for the second.

Going from `COc1ccc(Cl)cc1C(=O)NCCc1ccc(C(C)=O)cc1` to `COc1ccc(Cl)cc1C(=O)NCCc1ccc([N+](=O)[O-])cc1`, the “Change in rat blood sugar” value rises from -11% to 2%.

Going from `COc1ccc(Cl)cc1C(=O)NCCc1ccc(S(=O)(=O)NC(=O)NC2CCCCC2)cc1` [GLYBURIDE] to `COc1ccc(Cl)cc1C(=O)NCCc1ccc(OCC(=O)O)cc1`, the “Change in rat blood sugar” value rises from -44% to -9%.

For `COc1ccc(Cl)cc1C(=O)NCCc1ccc(C(F)(F)F)cc1`, the “Change in rat blood sugar” value was -3%.
